From PubChem BioAssay (NCI)
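Tested at 5 concentrations; 48 h exposure; 96-well plates; endpoints linearly interpolated, else capped at highest concentration. TGI: concentration producing complete growth inhibition.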

Columns and labels:
Assay in all cases: NCI tumour cell line growth inhibition, 48 h
786-0 renal = system: 786-0 renal
A549 NSCLC = system: A549 NSCLC
ACHN renal = system: ACHN renal
BT-549 breast = system: BT-549 breast
CAKI-1 renal = system: CAKI-1 renal
CCRF-CEM leukemia = system: CCRF-CEM leukemia
COLO 205 colon = system: COLO 205 colon
DU-145 prostate = system: DU-145 prostate
EKVX NSCLC = system: EKVX NSCLC
HCC-2998 colon = system: HCC-2998 colon
HCT-116 colon = system: HCT-116 colon
HCT-15 colon = system: HCT-15 colon
HL-60(TB) leukemia = system: HL-60(TB) leukemia
HOP-62 NSCLC = system: HOP-62 NSCLC
HOP-92 NSCLC = system: HOP-92 NSCLC
HS 578T breast = system: HS 578T breast
HT29 colon = system: HT29 colon
IGROV1 ovarian = system: IGROV1 ovarian
K-562 leukemia = system: K-562 leukemia
KM12 colon = system: KM12 colon
M14 melanoma = system: M14 melanoma
MALME-3M melanoma = system: MALME-3M melanoma
MCF7 breast = system: MCF7 breast
MDA-MB-231 breast = system: MDA-MB-231 breast
MDA-MB-435 = system: MDA-MB-435
MDA-N = system: MDA-N
MOLT-4 leukemia = system: MOLT-4 leukemia
NCI-H226 lung = system: NCI-H226 lung
NCI-H23 lung = system: NCI-H23 lung
NCI-H460 lung = system: NCI-H460 lung
NCI-H522 lung = system: NCI-H522 lung
NCI/ADR-RES ovarian = system: NCI/ADR-RES ovarian
OVCAR-3 ovarian = system: OVCAR-3 ovarian
OVCAR-4 ovarian = system: OVCAR-4 ovarian
OVCAR-5 ovarian = system: OVCAR-5 ovarian
OVCAR-8 ovarian = system: OVCAR-8 ovarian
PC-3 prostate = system: PC-3 prostate
RPMI-8226 leukemia = system: RPMI-8226 leukemia
RXF 393 renal = system: RXF 393 renal
SF-268 CNS = system: SF-268 CNS
SF-295 CNS = system: SF-295 CNS
SF-539 CNS = system: SF-539 CNS
SK-MEL-2 melanoma = system: SK-MEL-2 melanoma
SK-MEL-28 melanoma = system: SK-MEL-28 melanoma
SK-MEL-5 melanoma = system: SK-MEL-5 melanoma
SK-OV-3 ovarian = system: SK-OV-3 ovarian
SN12C renal = system: SN12C renal
SNB-19 CNS = system: SNB-19 CNS
SNB-75 CNS = system: SNB-75 CNS
SR leukemia = system: SR leukemia
SW-620 colon = system: SW-620 colon
T-47D breast = system: T-47D breast
TK-10 renal = system: TK-10 renal
U251 CNS = system: U251 CNS
UACC-257 melanoma = system: UACC-257 melanoma
UACC-62 melanoma = system: UACC-62 melanoma

Measured: TGI

Cc1c2ccccc2cc2nc3ccccc3n12
> 10 µM: all assays above
